Laboratory results as given in patent publication US4681894A, “Hydroxamic acids and esters” (Ortho Pharmaceutical Corporation, priority 1986, dated 1987).

Legend:
[1] = test system: Lewis strain laboratory rats; test: In vivo alleviation of inflammation: Mycobacterium butyricum-induced polyarthritis, inhibition of paw volume increase; set-up: species or system rat (Lewis strain); settings: Rattus norvegicus, po, five consecutive days from day 10, paw volume about 4 h after final dose, read-out: % Inhibition Oral Dosage (percentage inhibition of pad swelling); for inhibition in vivo at 50 mg/kg: 50 mg/kg p.o.
Procedure: Polyarthritis was induced in Lewis strain laboratory rats (weight=about 200 grams) by injection of a suspension of Mycobacterium butyricum in mineral oil into the subplantar tissue of the mammals' hind paws. On day 10 after the injection, the rats were assigned to groups, and paw volumes and body weights were recorded. Paw volumes of the contralateral, uninjected hind paw were determined by mercury plethylsmography. Per os (p.o.) dosing began and continued for five consecutive days thereafter. On day 14 after the initial injection, approximately four hours after the final dose was administered, paw volumes and body weights were recorded and quantitated.
Anti-inflammatory activity of the substituted naphthalene compounds is expressed as the present inhibition of paw volume increase.

5-lipoxygenase = molecular target: T1, 5-lipoxygenase (Rattus norvegicus, UniProt P12527); test: Inhibition of 5-lipoxygenase (5-HETE production) in whole RBL-1 cells; assay type: cell-based; settings: in vitro, RBL-1 whole cells, A23187 1.9 μM, 55 μM 14C-arachidonic acid, 37° C; highest concentration tested 10 μM; read-out: IC50 (lipoxygenase inhibitory activity)
T1 construct: 5-HETE Production in Whole Cells; endogenous in cells; host or cells: RBL-1 (rat basophilic leukemia cells)
T1 sequence (P12527 1-673): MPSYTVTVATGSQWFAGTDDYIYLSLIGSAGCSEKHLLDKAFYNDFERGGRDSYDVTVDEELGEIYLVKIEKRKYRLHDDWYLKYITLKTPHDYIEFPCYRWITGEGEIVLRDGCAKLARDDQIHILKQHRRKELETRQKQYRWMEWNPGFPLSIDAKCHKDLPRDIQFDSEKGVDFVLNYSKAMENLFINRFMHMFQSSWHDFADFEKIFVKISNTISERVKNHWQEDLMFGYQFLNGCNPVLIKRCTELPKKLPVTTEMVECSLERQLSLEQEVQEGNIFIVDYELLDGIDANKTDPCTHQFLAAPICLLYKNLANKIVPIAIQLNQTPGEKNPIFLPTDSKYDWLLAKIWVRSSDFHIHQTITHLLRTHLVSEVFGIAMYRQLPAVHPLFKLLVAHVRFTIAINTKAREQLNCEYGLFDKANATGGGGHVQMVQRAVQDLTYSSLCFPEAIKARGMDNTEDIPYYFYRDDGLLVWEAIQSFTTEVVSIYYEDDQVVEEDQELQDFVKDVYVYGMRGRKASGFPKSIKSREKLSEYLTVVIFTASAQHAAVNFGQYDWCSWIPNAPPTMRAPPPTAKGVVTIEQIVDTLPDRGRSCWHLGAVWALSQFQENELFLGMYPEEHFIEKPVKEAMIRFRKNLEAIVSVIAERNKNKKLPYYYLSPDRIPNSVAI
Procedure: Rat basophilic leukemia cells (RBL-1) were grown in Eagle's Minimal Essential Medium containing 10% fetal calf serum. 5% calf serum, 1% glutamine and 50 mg/l gentamycin were maintained at 37° C. in an atmosphere containing 5% CO2. Exponentially growing cells were harvested by centrifugation at 400×g for 10 minutes at 4° C. and were washed once with Dulbecco's phosphate buffered saline containing 0.87 mM CaCl2. The cells were resuspended in the same buffer at a concentration of 1.85×10^7 cells/ml.
RBL-1 cells (1.57×10^7 cells/tube) were preincubated for 10 minutes at 37° C. in the presence of the indicated drugs or vehicle (1% DMSO). Following the transfer of the assay tubes to an icebath, the reaction was initiated by the sequential addition of calcium ionophore A23187, an agent which increases the ability of divalent ions such as Ca^++ to cross biological membranes (final concentration=1.9 μM) and 55 μM 1-^14 C-arachidonic acid (New England Nuclear) at a final specific activity of 3000-4000 cpm/nmole. The final volume in each tube was 1 ml. The assay tubes were incubated at 37° C. for 5 minutes, and the reaction was stopped by transferring the tubes to ice and adjusting the pH of the reaction mixture to pH 3.0-3.5 by the addition of 1M citric acid.
In order to isolate the Δ5 -lipoxygenase product, ^14 C-5-HETE that was formed from arachidonic acid, each assay tube was extracted once with 6 volumes of anhydrous diethyl ether. In most assays, the recovery of product was estimated by determining the total amount of radioactivity recovered after extraction. In the remaining assays the recovery of ^14 C-5-HETE was monitored by addition of trace quantities of ^3 H-5-HETE (New England Nuclear) prior to extraction. The ether fractions from each sample were dried under nitrogen, redissolved and spotted on Gleman silica gel-impregnated glass fiber sheets. The plates were developed in iso-octane:2-butanone:glacial acetic acid (100:9:1). The area of each plate corresponding to added 5-HETE standard was visualized in an iodine chamber. The amount of ^14 C-5-HETE presented was quantitated by liquid scintillation counting in Aquasol II (New England Nuclear) and corrected for recovery. The percent inhibition of lipoxygenase activity represents the decrease in the amount of product formed from arachidonic acid by the cells or cell supernatant in the presence of drug. The values for negative controls (assays incubated on ice in the presence of citric acid) were always less than 10% of the positive controls and were subtracted from each tube. The IC50 is the concentration of drug which is required for 50% inhibition of the enzyme, as determined graphically from assays using multiple concentrations of drug.

Compound	inhibition in vivo at 50 mg/kg [1]	IC50 (5-lipoxygenase)	inhibition in vivo at 40 mg/kg ([1]; 40 mg/kg p.o.)	inhibition in vivo at 22 mg/kg ([1]; 22 mg/kg p.o.)
C#CCOc1ccc2cc(C(=O)CCCCC(=O)OCC)ccc2c1 [Example 14, Ethyl 6-(6-propynyloxy-2-naphthyl)-6-oxohexanoate]	23%	–	–	–
CCCCN(O)C(=O)CCCCC(=O)c1ccc2cc(OC)ccc2c1 [Example 18, N-Butyl-N-hydroxy-6-(6-methoxy-2-naphthyl)-6-oxohexanamide]	–	370 nM	–	–
CCOC(=O)CCCCCCC(=O)c1ccc2cc(OC)ccc2c1 [Example 1, Ethyl 8-(6-methoxy-2-naphthyl)-8-oxooctanoate]	48%	–	–	–
COc1ccc2cc(C(=O)CCCCC(=O)N(C)O)ccc2c1 [Example 15, N-Hydroxy-N-methyl-6-(6-methoxy-2-naphthyl)-6-oxohexanamide]	–	250 nM	34%	–
COc1ccc2cc(C(=O)CCCCC(=O)NO)ccc2c1 [Example 16, N-Hydroxy-6-(6-methoxy-2-naphthyl)-6-oxohexanamide]	–	10000 nM	–	–
C=CCOc1ccc2cc(C(=O)CCCCC(=O)OCC)ccc2c1 [Example 12, Ethyl 6-(6-allyloxy-2-naphthyl)-6-oxohexanoate]	44%	> 10000 nM	–	–
COc1ccc2cc(C(=O)CCCCC(=O)N(O)c3ccccc3)ccc2c1 [Example 22, N-Hydroxy-N-phenyl-6-(6-methoxy-2-naphthyl)-6-oxohexanamide]	28%	100 nM	–	–
CCOC(=O)CCCCC(=O)c1ccc2cc(OC)ccc2c1 [Example 2, Ethyl 6-(6-methoxy-2-naphthyl)-6-oxohexanoate]	–	> 10000 nM	–	50%
COc1ccc2cc(C(=O)CCCCC(=O)N(O)C(C)(C)C)ccc2c1 [Example 20, N-tert-Butyl-N-hydroxy-6-(6-methoxy-2-naphthyl)-6-oxohexanamide]	–	450 nM	–	–
COC(=O)CCCCCCC(=O)c1ccc2cc(OC)ccc2c1 [Example 4, Methyl 8-(6-methoxy-2-naphthyl)-8-oxooctanoate]	53%	–	–	–
CCN(O)C(=O)CCCCC(=O)c1ccc2cc(OC)ccc2c1 [Example 17, N-Ethyl-N-hydroxy-6-(6-methoxy-2-naphthyl)-6-oxohexanamide]	23%	110 nM	–	–
COc1ccc2cc(C(=O)CCCCC(=O)N(C)OC)ccc2c1 [Example 23, N-Methoxy-N-methyl-6-(6-methoxy-2-naphthyl)-6-oxohexanamide]	60%	> 10000 nM	–	–
CCOC(=O)CCCCC(=O)c1ccc2cc(O)ccc2c1 [Example 8, Ethyl 6-(6-hydroxy-2-naphthyl)-6-oxohexanoate]	12%	> 10000 nM	–	–
COc1ccc2cc(C(=O)CCCCCCC(=O)O)ccc2c1 [Example 6, 8-(6-Methoxy-2-naphthyl)-8-oxooctanoic acid]	47%	–	–	–
COc1ccc2cc(C(=O)CCCCC(=O)N(O)C3CCCCC3)ccc2c1 [Example 21, N-Hydroxy-N-cyclohexyl-6-(6-methoxy-2-naphthyl)-6-oxohexanamide]	33%	400 nM	–	–
CCCCCCCN(O)C(=O)CCCCC(=O)c1ccc2cc(OC)ccc2c1 [Example 19, N-Heptyl-N-hydroxy-6-(6-methoxy-2-naphthyl)-6-oxohexanamide]	–	1600 nM	–	–
COc1ccc2cc(C(=O)CCCCC(=O)N(O)C(C)C)ccc2c1 [Example 24, N-Hydroxy-N-isopropyl-6-(6-methoxy-2-naphthyl)-6-oxohexanamide]	51%	120 nM	–	–
